Assay results reported in PubChem BioAssay AID2384 (Southern Research Specialized Biocontainment Screening …, 2010).

system: S. typhi GFP reporter counter-screen, fluorescence, 4 h; assay: S. typhi counter-screen signal inhibition – fluorescence, 4 h, counter-screen for PhoP regulon inhibitor project, dose response (AID 2384)

Row | Compound | IC50 [µM]
1 | Nc1nnnn1/N=C/c1cc([N+](=O)[O-])ccc1O | 52.1
2 | Clc1ccc(-c2cc(C3CCNCC3)[nH]n2)c(Cl)c1 | 18.2
3 | O=C(N/N=C/c1ccc([N+](=O)[O-])s1)c1ccccc1Br | 77.5
4 | O=C(C[n+]1ccccc1)c1ccc(-c2ccccc2)cc1 | 123
5 | CCn1cnc2cc(NCc3ccc(Br)cc3)ccc21 | 138
6 | CCOC(=O)C1=C(c2ccccc2)NC(N)=NC1c1ccc(OCc2ccc(C(=O)OC)cc2)cc1 (centres undefined) | 35.8
7 | Cc1ccc(-n2c(C)cc(C3N=C(N)Nc4nc5ccccc5n43)c2C)c(C)c1 (centres undefined) | 26.6
8 | CCCCNC1=CC(=O)C(=O)c2ccccc21 | 72.8
9 | CN(Cc1ccccc1)CC(O)COc1ccc(CNCCCOc2cccnc2)cc1 (centres undefined) | 53.3
10 | CCOC(=O)c1ccc(CNCc2ccc(Br)cc2)cc1 | 45.4
11 | C/C(=N\NC(=O)c1cccc(Br)c1)c1ccccn1 | 31.6
12 | CC[C@H]1OC(=O)C[C@@H](O)[C@H](C)[C@@H](O[C@@H]2O[C@H](C)C[C@H](N(C)C)[C@H]2O)[C@@H](CC=O)C[C@@H](C)C(=O)C=C[C@]2(C)O[C@H]2[C@@H]1C | 3.95
13 | CCn1cc(C(=O)O)c(=O)c2cc(F)c(N3CCN(C(=S)NC(=O)c4ccccc4C)CC3)cc21 | 49.3
14 | Cc1cc(C)n(-c2nc(SCCN(C)C)c3c4c(sc3n2)CCCC4)n1 | 37.8
15 | O=C(/C=C/c1ccco1)NC(=S)NNC(=O)c1ccco1 | 90.8
16 | CCn1cc(C(=O)O)c(=O)c2cc(F)c(N3CCNCC3)cc21 | 0.49
17 | CCOC(=O)N1CCN(Cc2cc(Cl)c3cccnc3c2O)CC1 | 47.4
18 | Cc1nonc1C(=O)N/N=C/c1ccc([N+](=O)[O-])o1 | 51.9
19 | OCCN1CCN(C2Cc3cc(Cl)ccc3Sc3ccc(Cl)cc32)CC1 (centres undefined) (tested in a mixture with another compound) | 25.9
20 | CCCCCCCCCCCCCCCC[N+](C)(C)CC | 19.3
21 | C[C@H]1COc2c(N3CCN(C)CC3)c(F)cc3c(=O)c(C(=O)O)cn1c23 | 0.69
22 | O=C(Nc1nnc(-c2cccs2)o1)c1cccc(C(F)(F)F)c1 | 26.4
23 | COc1cc([N+](=O)[O-])cc(/C=N/NC(=O)C(O)(c2ccccc2)c2ccccc2)c1O | 80
24 | CCOc1ccc(OCCSc2nc(C)cc(=O)[nH]2)cc1 | 149
25 | O=[N+]([O-])c1cc(/C=N/Nc2nc3ccccc3[nH]2)c(O)cc1O | 17.8
26 | CCCCCC(CC(=O)NO)C(=O)NC(C(=O)N1CCCC1CO)C(C)C (centres undefined) | 20.3
27 | Oc1c(CN2CCOCC2)cc(COCc2ccccc2)c2cccnc12 | 36

Row | Compound | IC50 [µM]
28 | Cc1cc(NS(=O)(=O)c2ccc(NC(=O)Nc3cccc(Cl)c3)cc2)no1 | 120
29 | OC1(c2ccc(Cl)cc2)CCN(Cc2c[nH]c3ccccc23)CC1 | 29.8
30 | Cn1c(SCC(=O)N/N=C/c2ccc([N+](=O)[O-])s2)nnc1-c1ccc(Cl)cc1 | 46.2
31 | CCOc1cc(Br)cc(/C=N/NC(=O)c2cccnc2)c1O | 126
32 | O=C(Cn1nc(CNc2ccc(Cl)cc2)[n+]2c1CCCCC2)c1ccc(Br)cc1 | 57.2
33 | Cc1ccc(CC(=O)Nc2ncc([N+](=O)[O-])s2)cc1 | 78.5
34 | CCOC(=O)N1CCN(C(=O)c2cn(CC)c3cc(N4CCN(C)CC4)c(F)cc3c2=O)CC1 | 20.3
35 | COc1cc([N+](=O)[O-])cc(/C=N/NC(=O)C(C)Nc2cccc(C)c2)c1O (centres undefined) | 136
36 | CCCCCCCCCCOC(=O)Cn1c(COc2ccccc2C)[n+](C)c2ccccc21 | 10.4
37 | CCn1cc(C(=O)O)c(=O)c2cc(F)c(N3CCN(S(=O)(=O)c4ccc(NC(C)=O)cc4)CC3)cc21 | 131
38 | CCCCCCCCCCOC(=O)Cn1c(COc2ccccc2OC)[n+](C)c2ccccc21 | 20
39 | Cc1ccc(C)c(NC(=O)CCC(=O)N/N=C/c2cc([N+](=O)[O-])ccc2O)c1 | 47.1
40 | NC(=O)c1ccc(N=C2C(=O)Nc3ccc([N+](=O)[O-])cc32)cc1 | 72.8
41 | O=C(C[n+]1cc(-c2ccc(Cl)cc2)n2c1CCC2)N1c2ccccc2Sc2ccccc21 | 50.9
42 | O=C(CNC(=O)c1ccccc1)N/N=C/c1ccc([N+](=O)[O-])s1 | 28.7
43 | CCCCn1c(NS(=O)(=O)c2ccccc2)c(S(=O)(=O)c2ccc(C)cc2)c2nc3ccccc3nc21 | 9.39
44 | CCn1cc(C(=O)O)c(=O)c2cc(F)c(N3CCN(C(=S)NC(=O)c4cccc(F)c4)CC3)cc21 | 94.6
45 | CCOc1cc(CNC(C)(C)CO)cc(Br)c1OCc1ccc(Cl)cc1Cl | 37.3
46 | NS(=O)(=O)c1ccc(CNc2ccc3ccccc3n2)cc1 | 145
47 | O=C(/C=C/c1ccccc1Cl)c1ccccc(=O)c1O | 28
48 | O=[N+]([O-])c1cc(Cl)cc(/C=N/NC(=S)Nc2ccc(S(=O)(=O)N3CCOCC3)cc2)c1O | 51
49 | OC(CNCCc1ccc(Cl)cc1Cl)COc1ccccc1 (centres undefined) | 37.3
50 | CCCCCCCCCn1c2c(c(=N)c3c1CCC3)CCC2 | 10.6
51 | Cc1ccccc1S(=O)(=O)NNC(=O)C(=O)NNc1ccccn1 | 36.6
52 | O=C(N/N=C/c1cc([N+](=O)[O-])ccc1O)C1CC1 | 20.2
53 | Fc1ccc(CCNCc2ccc(Cl)c(Cl)c2)cc1 | 36.6
54 | Cc1nc2c(=O)n(C)c(=O)nc-2n(C)n1 | 2.32
